Assay results reported in publication PMC12155096 (International Journal of Molecular Sciences, 2025).
pIC50: −log10 of the molar value. Read-outs that look alike come from different tables or passages of the source.

What was measured:
human CYP1A2 = target: T1, human CYP1A2 (Homo sapiens, UniProt P05177)
T1 sequence (P05177 1-516): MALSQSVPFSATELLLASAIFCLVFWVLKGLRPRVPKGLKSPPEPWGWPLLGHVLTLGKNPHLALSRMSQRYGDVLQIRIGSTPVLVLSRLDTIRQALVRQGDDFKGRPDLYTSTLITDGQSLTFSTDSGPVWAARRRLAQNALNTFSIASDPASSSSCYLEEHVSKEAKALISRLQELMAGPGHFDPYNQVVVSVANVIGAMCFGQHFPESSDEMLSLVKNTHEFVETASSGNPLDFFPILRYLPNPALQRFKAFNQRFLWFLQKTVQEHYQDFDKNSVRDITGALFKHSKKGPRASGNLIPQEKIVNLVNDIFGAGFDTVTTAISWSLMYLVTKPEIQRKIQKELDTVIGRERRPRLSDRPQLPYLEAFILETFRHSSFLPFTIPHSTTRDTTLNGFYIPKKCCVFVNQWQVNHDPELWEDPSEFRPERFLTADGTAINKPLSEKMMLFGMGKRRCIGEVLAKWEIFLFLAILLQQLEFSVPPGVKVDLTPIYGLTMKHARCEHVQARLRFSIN

CYP3A4 = CYP3A4 (Homo sapiens, UniProt P08684)
CYP3A4, sequence (P08684 whole entry): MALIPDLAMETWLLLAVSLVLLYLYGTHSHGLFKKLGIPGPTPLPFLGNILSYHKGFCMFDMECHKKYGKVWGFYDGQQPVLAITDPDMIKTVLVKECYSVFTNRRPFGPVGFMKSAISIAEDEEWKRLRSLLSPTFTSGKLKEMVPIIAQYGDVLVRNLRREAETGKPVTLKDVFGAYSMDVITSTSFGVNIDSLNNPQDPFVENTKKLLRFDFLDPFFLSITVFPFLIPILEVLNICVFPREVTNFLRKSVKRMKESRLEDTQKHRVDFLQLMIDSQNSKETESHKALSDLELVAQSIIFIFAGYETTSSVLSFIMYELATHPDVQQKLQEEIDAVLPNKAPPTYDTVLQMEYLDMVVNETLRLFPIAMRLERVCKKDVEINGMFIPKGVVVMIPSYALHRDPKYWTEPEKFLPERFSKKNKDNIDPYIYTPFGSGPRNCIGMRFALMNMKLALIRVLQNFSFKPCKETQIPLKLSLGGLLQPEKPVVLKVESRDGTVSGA

human CYP2C19 = human CYP2C19 (Homo sapiens, UniProt P33261)
human CYP2C19, sequence (P33261 whole entry): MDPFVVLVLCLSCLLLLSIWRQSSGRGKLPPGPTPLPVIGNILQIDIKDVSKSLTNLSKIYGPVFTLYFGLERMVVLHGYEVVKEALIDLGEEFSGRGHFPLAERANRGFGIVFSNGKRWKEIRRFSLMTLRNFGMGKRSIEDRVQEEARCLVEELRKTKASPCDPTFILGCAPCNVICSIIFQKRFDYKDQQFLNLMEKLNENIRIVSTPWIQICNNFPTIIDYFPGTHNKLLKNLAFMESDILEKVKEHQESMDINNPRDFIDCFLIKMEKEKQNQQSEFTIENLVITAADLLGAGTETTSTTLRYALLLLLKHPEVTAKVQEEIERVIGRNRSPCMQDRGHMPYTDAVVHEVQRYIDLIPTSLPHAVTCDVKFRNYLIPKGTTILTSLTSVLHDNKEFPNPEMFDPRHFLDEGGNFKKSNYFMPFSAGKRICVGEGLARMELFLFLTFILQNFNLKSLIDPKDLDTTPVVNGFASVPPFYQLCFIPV

human CYP2D6 = human CYP2D6 (Homo sapiens, UniProt P10635)
human CYP2D6, sequence (P10635 whole entry): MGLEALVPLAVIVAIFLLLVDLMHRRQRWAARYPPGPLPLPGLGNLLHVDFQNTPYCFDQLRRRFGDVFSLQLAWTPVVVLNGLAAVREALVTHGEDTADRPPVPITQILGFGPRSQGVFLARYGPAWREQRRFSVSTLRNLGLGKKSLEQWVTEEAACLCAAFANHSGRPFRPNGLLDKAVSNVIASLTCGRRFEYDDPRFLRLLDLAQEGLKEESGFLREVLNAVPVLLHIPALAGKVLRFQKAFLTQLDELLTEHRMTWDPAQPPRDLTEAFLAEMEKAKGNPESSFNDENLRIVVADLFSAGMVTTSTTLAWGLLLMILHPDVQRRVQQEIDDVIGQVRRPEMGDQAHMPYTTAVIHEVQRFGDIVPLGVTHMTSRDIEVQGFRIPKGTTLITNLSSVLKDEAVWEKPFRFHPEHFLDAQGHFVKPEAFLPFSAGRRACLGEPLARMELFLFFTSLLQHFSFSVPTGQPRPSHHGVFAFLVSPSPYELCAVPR

[1] = target: Photinus pyralis (firefly) luciferase (Photinus pyralis, UniProt P08659); test: biochemical; format: biochemical
Photinus pyralis (firefly) luciferase, sequence (P08659 whole entry): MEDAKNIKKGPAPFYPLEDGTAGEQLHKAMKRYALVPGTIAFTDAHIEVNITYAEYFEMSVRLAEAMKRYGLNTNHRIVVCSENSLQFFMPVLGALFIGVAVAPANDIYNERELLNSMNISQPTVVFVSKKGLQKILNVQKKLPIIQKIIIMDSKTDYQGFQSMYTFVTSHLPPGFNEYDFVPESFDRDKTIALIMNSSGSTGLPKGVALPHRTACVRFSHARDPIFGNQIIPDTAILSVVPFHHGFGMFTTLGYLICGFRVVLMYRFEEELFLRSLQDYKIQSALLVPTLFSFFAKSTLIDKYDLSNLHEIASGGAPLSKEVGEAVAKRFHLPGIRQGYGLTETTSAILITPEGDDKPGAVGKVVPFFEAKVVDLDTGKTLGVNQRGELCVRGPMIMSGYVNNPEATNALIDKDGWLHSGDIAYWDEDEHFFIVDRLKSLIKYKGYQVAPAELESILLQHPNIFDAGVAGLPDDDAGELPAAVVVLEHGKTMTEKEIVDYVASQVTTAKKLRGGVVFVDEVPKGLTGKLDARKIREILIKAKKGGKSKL

human CYP2C9 = human CYP2C9 (Homo sapiens, UniProt P11712)
human CYP2C9, sequence (P11712 whole entry): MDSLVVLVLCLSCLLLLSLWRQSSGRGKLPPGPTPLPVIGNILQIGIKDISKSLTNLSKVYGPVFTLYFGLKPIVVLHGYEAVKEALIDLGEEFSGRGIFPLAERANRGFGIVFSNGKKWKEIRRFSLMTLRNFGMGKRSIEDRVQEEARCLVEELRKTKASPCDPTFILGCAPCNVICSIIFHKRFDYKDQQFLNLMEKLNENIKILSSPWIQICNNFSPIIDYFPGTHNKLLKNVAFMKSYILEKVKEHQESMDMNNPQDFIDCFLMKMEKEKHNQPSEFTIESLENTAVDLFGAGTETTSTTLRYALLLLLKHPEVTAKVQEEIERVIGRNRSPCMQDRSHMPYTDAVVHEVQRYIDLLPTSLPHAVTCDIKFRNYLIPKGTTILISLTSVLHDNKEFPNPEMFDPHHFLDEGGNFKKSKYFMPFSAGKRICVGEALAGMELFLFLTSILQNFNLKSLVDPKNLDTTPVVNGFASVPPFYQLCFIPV

[2] = read-out: Luciferase IC50 (half-maximal inhibitory concentration)

Molecule	pIC50 (CYP3A4)	pIC50 (human CYP2C19)	pIC50 (human CYP1A2)	pIC50 (human CYP2D6)	pIC50 (human CYP2C9)	Luciferase IC50 (half-maximal inhibitory concentration) [1]	other results
CC(C)C[C@H]1[C@@H](c2ccccc2)OC(=O)N1CCCN1CCCCCC1.Cl [Ipenoxazone hydrochloride]	6.06	5.64					CYP1A2 IC50 (human CYP1A2): Inactive; CYP2D6 Efficacy (human CYP2D6): 0.44 ± 0.1 (-105 ± 4) %; Luciferase IC50 [1]: Inactive; CYP2C9 IC50 (human CYP2C9): Inactive
COP(=S)(OC)SCn1nnc2ccccc2c1=O [Azinphos-methyl]							CYP1A2 Efficacy (in parenthesis) (human CYP1A2; human): 28.26 ± 0 (-93 ± 8) %; CYP3A4 Efficacy (in parenthesis) (CYP3A4): 11.45 ± 2.62 (-87 ± 5) %; CYP2C19 Efficacy (in parenthesis) (human CYP2C19; human): 1.01 ± 0.12 (-134 ± 9) %; CYP2D6 Efficacy (in parenthesis) (human CYP2D6; human): 55.48 ± 13.48 (-75 ± 13) %; Luciferase Efficacy (in parenthesis) [1]: 47.70 ± 13.48 (-40 ± 2) %; CYP2C9 Efficacy (in parenthesis) (human CYP2C9; human): 3.88 ± 0.66 (-99 ± 12) %
COc1ccc(OC)c(N=Nc2c(O)ccc3ccccc23)c1 [C.I. Solvent Red 80]	5.55	5.10	6.12	4.87	5.20		pIC50 [1, 2]: 5.16
[Cl][Bi]([Cl])([c]1ccccc1)([c]1ccccc1)[c]1ccccc1 [Triphenylbismuthine dichloride]	4.82	6.55	4.77	5.15	6.06		pIC50 ([1]; read-out: Luciferase IC50): 4.88
CCNc1nc(Cl)nc(NC(C)(C)C)n1 [Terbutylazine]		4.51	4.96		6.21		CYP3A4 IC50 (CYP3A4): Inactive; CYP2D6 IC50 (human CYP2D6): Inactive; Luciferase IC50 [1]: Inactive
O=C(C(=O)c1ccc(Br)cc1)c1ccc(Br)cc1 [4,4'-Dibromobenzil]		6.15	5.00			Inactive	CYP1A2 Efficacy (in parenthesis) (human CYP1A2): 9.92 ± 0 (-37 ± 3) %; CYP3A4 IC50 (half-maximal inhibitory concentration) (CYP3A4): Inactive; CYP2C19 Efficacy (in parenthesis) (human CYP2C19): 0.71 ± 0.31 (-137 ± 6) %; CYP2D6 IC50 (half-maximal inhibitory concentration) (human CYP2D6): Inactive; CYP2C9 IC50 (half-maximal inhibitory concentration) (human CYP2C9): Inactive
CC(=O)[O-].CC(=O)[O-].[Hg+2] [Mercury(II) acetate]	5.54	6.04	5.38	5.97	6.30		CYP1A2 Efficacy (in parenthesis) (human CYP1A2): 4.19 ± 0.75 (-100 ± 9) %; CYP3A4 Efficacy (in parenthesis) (CYP3A4): 2.86 ± 0.53 (-93 ± 1) %; CYP2C19 Efficacy (in parenthesis) (human CYP2C19): 0.91 ± 0.47 (-137 ± 5) %; CYP2D6 Efficacy (in parenthesis) (human CYP2D6): 1.08 ± 0.07 (-72 ± 4) %; Luciferase Efficacy (in parenthesis) [1]: 6.84 ± 0.45 (-85 ± 7) %; pIC50 [1, 2]: 5.16; CYP2C9 Efficacy (in parenthesis) (human CYP2C9): 0.5 ± 0.06 (-104 ± 2) %
Cc1ccc([N+](=O)[O-])[c]2c1[O][Hg]2 [Nitromersol]	5.09	5.89	5.36	6.11	6.06		CYP1A2 Efficacy (in parenthesis) (human CYP1A2): 4.36 ± 1.13 (-86 ± 7) %; CYP3A4 Efficacy (in parenthesis) (CYP3A4): 8.08 ± 0.55 (-86 ± 6) %; CYP2C19 Efficacy (in parenthesis) (human CYP2C19): 1.28 ± 0.79 (-139 ± 25) %; CYP2D6 Efficacy (in parenthesis) (human CYP2D6): 0.78 ± 0.09 (-101 ± 2) %; Luciferase Efficacy (in parenthesis) [1]: 12.48 ± 4.81 (-100 ± 9) %; pIC50 [1, 2]: 4.90; CYP2C9 Efficacy (in parenthesis) (human CYP2C9): 0.87 ± 0 (-104 ± 2) %
CCCCCCCC[N+](CCCCCCCC)(CCCCCCCC)CCCCCCCC.[Br-] [Tetra-N-octylammonium bromide]	5.73	4.79	4.13	6.40	4.47		pIC50 ([1]; read-out: Luciferase IC50): 4.05
CC[N+]1(C)CCCC1.[I-] [1-Ethyl-1-methylpyrrolidinium iodide]		4.57	4.12	8.00			CYP3A4 IC50 (CYP3A4): Inactive; Luciferase IC50 [1]: Inactive; CYP2C9 IC50 (human CYP2C9): Inactive
CCOC(=O)c1ccc(OC(=O)CCCCCN=C(N)N)cc1.CS(=O)(=O)O [Gabexate mesilate]		4.99	4.70			Inactive	CYP1A2 Efficacy (human CYP1A2): 20.14 ± 4.79 (-49 ± 20) %; AC50 (CYP3A4): 21.2 µM; CYP3A4 IC50 (half-maximal inhibitory concentration) (CYP3A4): 21.25 ± 8.41 (37 ± 5) µM; CYP2C19 Efficacy (human CYP2C19): 10.33 ± 4.77 (-82 ± 30) %; AC50 (human CYP2D6): 0.27 µM; CYP2D6 Efficacy (human CYP2D6): 0.27 ± 0.04 (-102 ± 4) %; AC50 (human CYP2C9): 10.3 µM; CYP2C9 Efficacy (human CYP2C9): 10.33 ± 4.77 (82 ± 30) %
CO/C=C(/C(=O)OC)c1ccccc1COc1cccc(C(F)(F)F)n1 [Picoxystrobin]		6.00	4.49	4.42	4.42	Inactive	AC50 (human CYP1A2): 32.1 µM; AC50 (CYP3A4): 2.32 µM; CYP3A4 IC50 (half-maximal inhibitory concentration) (CYP3A4): 2.32 ± 0.75 (38 ± 1) µM; AC50 (human CYP2C19): 0.99 µM; AC50 (human CYP2D6): 38.4 µM; AC50 (human CYP2C9): 38.4 µM
Cimicifugoside	6.05				4.39	Inactive	CYP1A2 IC50 (half-maximal inhibitory concentration) (human CYP1A2): Inactive; CYP2C19 IC50 (half-maximal inhibitory concentration) (human CYP2C19): Inactive; CYP2D6 IC50 (half-maximal inhibitory concentration) (human CYP2D6): Inactive
C[C@H]1CCC[C@H](O)CCCCCc2cc(O)cc(O)c2C(=O)O1 [Zearalanol]	6.00	4.71	4.48	4.24	4.56	Inactive	
CC(=O)c1ccc2ccc3ccccc3c2c1 [3-Acetylphenanthrene]	4.31	4.65	5.98	4.05	4.93		CYP1A2 Efficacy (in parenthesis) (human CYP1A2): 1.04 ± 0.13 (-97 ± 1) %; CYP3A4 Efficacy (in parenthesis) (CYP3A4): 48.54 ± 19.2 (-66 ± 4) %; CYP2C19 Efficacy (in parenthesis) (human CYP2C19): 22.42 ± 2.58 (-138 ± 3) %; CYP2D6 Efficacy (in parenthesis) (human CYP2D6): 88.85 ± 0 (-46 ± 10) %; Luciferase Efficacy (in parenthesis) [1]: 32.81 ± 2.22 (-56 ± 6) %; pIC50 [1, 2]: 4.48; CYP2C9 Efficacy (in parenthesis) (human CYP2C9): 11.64 ± 0.79 (-93 ± 2) %
Cl.Cl.NCCNc1cccc2ccccc12	4.50						CYP1A2 Efficacy (human CYP1A2): 0.57 ± 0.07 (-100 ± 5) %; CYP2C19 Efficacy (human CYP2C19): 24.7 ± 6.17 (-146 ± 5) %; CYP2D6 Efficacy (human CYP2D6): 5.04 ± 0.58 (-104 ± 5) %; Luciferase IC50 [1]: Inactive; CYP2C9 Efficacy (human CYP2C9): 17.25 ± 2.37 (-110 ± 3) %
CCC(COC(=O)c1cc(OC)c(OC)c(OC)c1)(c1ccccc1)N(C)C.O=C(O)/C=C\C(=O)O (stereo not drawn) [Trimebutine maleate]	5.39	4.52		6.17	4.81	Inactive	CYP1A2 IC50 (half-maximal inhibitory concentration) (human CYP1A2): Inactive
CN1CCN(C2Cc3ccccc3Sc3ccc(Cl)cc32)CC1.O=C(O)/C=C\C(=O)O (stereo not drawn) [Octoclothepine maleate]	5.64	4.94	4.55	6.59	4.51		Luciferase IC50 [1]: Inactive
CCCN(CCC)CCc1c[nH]c2ccccc12.Cl [N,N-Dipropyltryptamine hydrochloride]		4.18	4.68	6.51			CYP3A4 IC50 (CYP3A4): Inactive; Luciferase IC50 [1]: Inactive; CYP2C9 IC50 (human CYP2C9): Inactive
CSc1ccc(C(=O)C(C)(C)N2CCOCC2)cc1	5.50		4.40	5.60	4.63	Inactive	CYP2C19 Efficacy (human CYP2C19): 0.94 ± 0.32 (-142 ± 3) %
C=CC(=O)OCC(CO)(COCC(COC(=O)C=C)(COC(=O)C=C)COC(=O)C=C)COC(=O)C=C [Dipentaerythritol pentaacrylate]	6.37	5.05		4.57	5.14	Inactive	CYP1A2 IC50 (half-maximal inhibitory concentration) (human CYP1A2): Inactive; CYP3A4 Efficacy (in parenthesis) (CYP3A4): 0.43 ± 0.03 (-94 ± 4) %; CYP2C19 Efficacy (in parenthesis) (human CYP2C19): 8.87 ± 1.02 (-135 ± 9) %; CYP2D6 Efficacy (in parenthesis) (human CYP2D6): 26.69 ± 11.98 (-72 ± 6) %; CYP2C9 Efficacy (in parenthesis) (human CYP2C9): 7.3 ± 0.49 (-101 ± 2) %
Cl.Clc1ccc(Cn2c(CN3CCCC3)nc3ccccc32)cc1 [Clemizole hydrochloride]	5.20	6.17	4.75	5.81	4.79	Inactive	CYP1A2 Efficacy (in parenthesis) (human CYP1A2): 17.64 ± 0.46 (-72 ± 13) %; CYP3A4 Efficacy (in parenthesis) (CYP3A4): 6.24 ± 1.17 (-72 ± 1) %; CYP2C19 Efficacy (in parenthesis) (human CYP2C19): 0.68 ± 0.17 (-140 ± 7) %; CYP2D6 Efficacy (in parenthesis) (human CYP2D6): 1.56 ± 0.18 (-101 ± 1) %; CYP2C9 Efficacy (in parenthesis) (human CYP2C9): 16.12 ± 1.09 (-82 ± 4) %
